Emax and EC50 data for 14 compounds are collected here from patent publication US12180192B2, “Modulators of THR-β and methods of use thereof” (ALIGOS THERAPEUTICS, INC., priority 2019, dated 2024).

Assay [1] deals with T1, THR beta (Homo sapiens, UniProt P10828).
T1 construct: expressed in transfected cells; host or cells: HEK293T (ATCC CRL-3216)
T1 sequence (P10828 1-461): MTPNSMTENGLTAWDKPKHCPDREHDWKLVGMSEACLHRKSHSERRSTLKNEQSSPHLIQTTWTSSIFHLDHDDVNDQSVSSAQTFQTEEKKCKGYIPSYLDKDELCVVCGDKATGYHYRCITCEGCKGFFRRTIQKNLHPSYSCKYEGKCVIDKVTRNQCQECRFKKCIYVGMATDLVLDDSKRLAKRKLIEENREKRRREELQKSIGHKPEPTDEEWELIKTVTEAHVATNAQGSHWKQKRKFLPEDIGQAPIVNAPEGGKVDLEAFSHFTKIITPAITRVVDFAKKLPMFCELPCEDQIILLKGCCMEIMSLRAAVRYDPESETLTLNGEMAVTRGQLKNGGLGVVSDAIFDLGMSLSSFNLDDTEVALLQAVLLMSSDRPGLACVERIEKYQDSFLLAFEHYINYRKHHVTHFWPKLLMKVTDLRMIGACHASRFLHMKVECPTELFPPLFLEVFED
T1 sequence (P19793 1-462 partner): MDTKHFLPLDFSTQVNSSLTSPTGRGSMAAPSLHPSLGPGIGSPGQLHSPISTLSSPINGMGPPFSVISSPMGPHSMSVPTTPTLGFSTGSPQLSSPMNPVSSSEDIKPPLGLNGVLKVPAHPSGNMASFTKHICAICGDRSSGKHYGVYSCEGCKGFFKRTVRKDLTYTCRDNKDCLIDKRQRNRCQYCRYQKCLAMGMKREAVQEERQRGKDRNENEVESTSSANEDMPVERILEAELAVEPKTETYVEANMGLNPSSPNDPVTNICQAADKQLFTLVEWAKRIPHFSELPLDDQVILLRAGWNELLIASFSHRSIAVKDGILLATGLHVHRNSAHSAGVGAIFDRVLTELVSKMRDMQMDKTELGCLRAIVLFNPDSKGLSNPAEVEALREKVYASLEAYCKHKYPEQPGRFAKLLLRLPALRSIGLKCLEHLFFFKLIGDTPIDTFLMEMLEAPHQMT
The experiment in a line: HEK293T THR beta/RXR luciferase reporter assay (Assay 2). In kind it is cell-based. The conditions noted are these: for Emax: HEK-293T, Table 5, Assay 2, THRβ, read-out: Activity category Assay 2 THRβ (Emax); for EC50: THR-beta, HEK293T reporter assay, read-out: Activity category Assay 2 (EC50, THR-beta agonist). The essentials:
(§1)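 HEK293T cells transiently transfected with TRE-luciferase reporter, RXR, and THR alpha or THR beta plasmid; ten five-fold compound dilutions from DMSO added for 18-24 h. One-Glo luminescence read; percent agonism normalized between negative and positive controls.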
For orientation: Reporter assays use an easily measured gene product as a stand-in for the process of interest.

For assay [2], the target named is T2, THR alpha (Homo sapiens, UniProt P10827).
T2 construct: expressed in transfected cells; host or cells: HEK293T (ATCC CRL-3216)
T2 sequence (P10827 1-410 isoform P10827-2): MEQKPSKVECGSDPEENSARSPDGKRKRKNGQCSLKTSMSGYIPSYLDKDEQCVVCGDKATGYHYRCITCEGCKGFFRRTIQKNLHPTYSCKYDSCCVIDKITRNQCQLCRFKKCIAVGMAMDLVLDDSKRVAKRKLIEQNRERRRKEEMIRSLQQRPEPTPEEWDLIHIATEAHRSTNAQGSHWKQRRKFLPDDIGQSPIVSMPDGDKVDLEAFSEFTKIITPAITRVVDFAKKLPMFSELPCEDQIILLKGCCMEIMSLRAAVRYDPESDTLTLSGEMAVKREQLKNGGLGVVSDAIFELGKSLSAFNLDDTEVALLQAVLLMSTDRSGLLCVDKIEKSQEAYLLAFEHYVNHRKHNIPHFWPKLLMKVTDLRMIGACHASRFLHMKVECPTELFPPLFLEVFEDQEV
T2 sequence (P19793 1-462 partner): T1 sequence (P19793 1-462 partner)
The experiment in a line: HEK293T THR alpha/RXR luciferase reporter assay (Assay 2). The conditions noted are these: Assay 2; for Emax: HEK-293T, Table 5, THRα, read-out: Activity category Assay 2 THRα (Emax); for EC50: Table 4, THR-alpha, read-out: Activity category Assay 2 (EC50, THR-alpha agonist activity). In kind it is cell-based. The essentials: as §1

In assay [3] the target is T3, human thyroid receptor alpha ligand-binding domain (LBD) (Homo sapiens, UniProt P10827).
T3 construct: purchased Invitrogen
Kind of assay: TR-FRET thyroid receptor alpha coactivator assay (THR biochemical assay, Assay 1). The conditions noted are these: for EC50: Table 4, THR-alpha, read-out: Activity category Assay 1 (EC50, THR-alpha agonist activity); for Emax: Table 5, THRα, read-out: Activity category Assay 1 THRα (Emax). The method, boiled down: (§2)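 GST-tagged human TRβ or TRα LBD, 1 nM final (stated for β), with fluorescein-SRC2-2 coactivator peptide (200 nM) and Tb-anti-GST antibody (2 nM). Agonists serially diluted, 1% DMSO final. 1 h incubation at rt in the dark; TR-FRET read as rise in fluorescein and drop in terbium emission.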

For assay [4], the target named is T4, human thyroid receptor beta ligand-binding domain (LBD) (Homo sapiens, UniProt P10828).
T4 construct: purchased Invitrogen
T4 sequence (P10828 217-461 limits assumed): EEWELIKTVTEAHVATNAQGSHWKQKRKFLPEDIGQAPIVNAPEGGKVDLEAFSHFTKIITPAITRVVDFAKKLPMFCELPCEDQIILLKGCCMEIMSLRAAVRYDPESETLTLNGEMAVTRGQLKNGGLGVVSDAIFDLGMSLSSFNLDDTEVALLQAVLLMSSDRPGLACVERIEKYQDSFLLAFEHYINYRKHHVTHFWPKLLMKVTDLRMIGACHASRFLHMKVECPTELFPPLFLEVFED
The experiment in a line: TR-FRET thyroid receptor beta coactivator assay (THR biochemical assay, Assay 1). The conditions noted are these: for EC50: THR-beta, TR-FRET coactivator assay, read-out: Activity category Assay 1 (EC50, THR-beta agonist); for Emax: Table 5, Assay 1, THRβ, read-out: Activity category Assay 1 THRβ (Emax). The method, boiled down: as §2
For orientation: Time-resolved FRET reads energy transfer from a long-lived donor to a nearby acceptor.

The term Emax denotes the greatest response seen or fitted, relative to the assay's reference. One may read the EC50 as the midpoint of the concentration-response curve.

In the case of `O=c1cc(-c2ccc3c(c2)CCCC3)c(Oc2c(Cl)cc(-n3ncc(=O)[nH]c3=O)cc2Cl)n[nH]1` [Compound 91-A, 2-(3,5-dichloro-4-((6-oxo-4-(5,6,7,8-tetrahydronaphthalen-2-yl)-1,6-dihydropyridazin-3-yl)oxy)phenyl)-1,2,4-triazine-3,5(2H,4H)-dione], the maximum response (Emax) was 50 to 75% in assay [1], < 50% in assay [2], < 50% in assay [3] and < 50% in assay [4]. For the same compound, the concentration for a half-maximal effect (EC50) was 50 to 250 nM in assay [1], > 10 µM in assay [2], 1000 to 25000 nM in assay [3] and < 50 nM in assay [4].
For `O=c1cc(-c2ccc3ccccc3c2)c(Oc2c(Cl)cc(-n3ncc(=O)[nH]c3=O)cc2Cl)n[nH]1` [Compound 92-A], the Emax is < 50% in assay [1], < 50% in assay [2], 50 to 75% in assay [3] and < 50% in assay [4]. Besides, the EC50 in assay [1] was 250 to 1000 nM; in assay [2], > 10 µM; in assay [3] it was 1000 to 25000 nM; in assay [4] it was < 50 nM.
On to `O=c1cnn(-c2cc(Cl)c(Oc3cc(-c4ccc5ccccc5c4)c(=O)[nH]n3)c(Cl)c2)c(=O)[nH]1` [Compound 92], for which the maximal effect (Emax) in assay [1], in assay [2], in assay [3] and in assay [4] was < 50% in each case. Moreover, the EC50 in assay [1] was 50 to 250 nM; in assay [2], > 10 µM; in assay [3], 1000 to 25000 nM; in assay [4] it was 50 to 250 nM.
With `Nc1nn(-c2cc(Cl)c(Oc3cc(C45CC(C4)C5)c(=O)[nH]n3)c(Cl)c2)c(=O)[nH]c1=O` [Compound 95], the Emax is > 75% in assay [1], < 50% in assay [2], < 50% in assay [3] and < 50% in assay [4]. Also, the EC50 in assay [1] is 50 to 250 nM; in assay [2] it was 0.25 to 1 µM; in assay [3], 250 to 1000 nM; in assay [4], 50 to 250 nM.
Consider `Nc1nn(-c2cc(Cl)c(Oc3cc(C4CCC(F)(F)CC4)c(=O)[nH]n3)c(Cl)c2)c(=O)[nH]c1=O` [Compound 97], for which the maximal response (Emax) in assay [1], in assay [2], in assay [3] and in assay [4] was < 50% throughout. In addition, the 50% effective concentration (EC50) in assay [1] was 1000 to 10000 nM; in assay [2], > 10 µM; in assay [3], 1000 to 25000 nM; in assay [4], 250 to 1000 nM.
As to `Nc1nn(-c2cc(Cl)c(Oc3cc(C4CCc5ccccc5C4)c(=O)[nH]n3)c(Cl)c2)c(=O)[nH]c1=O` (stereo not shown) [Compound 98], the Emax in assay [1], in assay [2], in assay [3] and in assay [4] was < 50% throughout. The EC50 in assay [1] was 50 to 250 nM; in assay [2], > 10 µM; in assay [3], > 25000 nM; in assay [4] it was 50 to 250 nM.
With `CO[C@H]1C[C@H](c2cc(Oc3c(Cl)cc(-n4nc(N)c(=O)[nH]c4=O)cc3Cl)n[nH]c2=O)C1` [Compound 102], the Emax in assay [1], in assay [2], in assay [3] and in assay [4] was < 50% each time. The half-maximal effective concentration (EC50) in assay [1] is 1000 to 10000 nM; in assay [2], > 10 µM; in assay [3], 1000 to 25000 nM; in assay [4], 1000 to 25000 nM.
Turning to `CO[C@H]1C[C@@H](c2cc(Oc3c(Cl)cc(-n4nc(N)c(=O)[nH]c4=O)cc3Cl)n[nH]c2=O)C1` [Compound 103], the Emax in assay [1], in assay [2], in assay [3] and in assay [4] was < 50% each time. Moreover, the EC50 is 1000 to 10000 nM in assay [1], > 10 µM in assay [2], > 25000 nM in assay [3] and 1000 to 25000 nM in assay [4].
`N#CC1CCC1c1cc(Oc2c(Cl)cc(-n3nc(N)c(=O)[nH]c3=O)cc2Cl)n[nH]c1=O` (stereo not shown) [Compound 104]: the Emax in assay [1] is 50 to 75%; in assay [2] it was < 50%; in assay [3] it was 50 to 75%; in assay [4], < 50%. For the same compound, the 50% effective concentration (EC50) was 1000 to 10000 nM in assay [1], > 10 µM in assay [2], 1000 to 25000 nM in assay [3] and 250 to 1000 nM in assay [4].
Turning to `Nc1nn(-c2cc(Cl)c(Oc3cc(C4CC(F)(F)C4)c(=O)[nH]n3)c(Cl)c2)c(=O)[nH]c1=O` [Compound 106], the Emax in assay [1] was 50 to 75%; in assay [2], < 50%; in assay [3], < 50%; in assay [4] it was < 50%. Moreover, the 50% effective concentration (EC50) fell in the range of 1000 to 10000 nM in assay [1], 1 to 10 µM in assay [2], 1000 to 25000 nM in assay [3] and 250 to 1000 nM in assay [4].
Consider `Nc1nn(-c2cc(Cl)c(Oc3cc(C4(c5ccccc5)CC4)c(=O)[nH]n3)c(Cl)c2)c(=O)[nH]c1=O` [Compound 107], for which the maximum response (Emax) in assay [1] was 50 to 75%; in assay [2], < 50%; in assay [3], < 50%; in assay [4] it was < 50%. Besides, the EC50 in assay [1] was 50 to 250 nM; in assay [2], 0.25 to 1 µM; in assay [3] it was 1000 to 25000 nM; in assay [4], < 50 nM.
Regarding `Cc1ccc(-c2cc(=O)[nH]nc2Oc2c(Cl)cc(-n3nc(N)c(=O)[nH]c3=O)cc2Cl)cc1C` [Compound 113], the Emax in assay [1], in assay [2], in assay [3] and in assay [4] was < 50% in each case. In addition, the EC50 in assay [1] is 250 to 1000 nM; in assay [2], > 10 µM; in assay [3], 250 to 1000 nM; in assay [4], 50 to 250 nM.
As for `Cc1cc(-c2cc(Oc3c(Cl)cc(-n4nc(N)c(=O)[nH]c4=O)cc3Cl)n[nH]c2=O)ccc1Cl` [Compound 116], the maximal effect (Emax) in assay [1], in assay [2], in assay [3] and in assay [4] was < 50% throughout. Moreover, the concentration giving a half-maximal response (EC50) is 50 to 250 nM in assay [1], > 10 µM in assay [2], > 25000 nM in assay [3] and 50 to 250 nM in assay [4].
In the case of `Nc1nn(-c2cc(Cl)c(Oc3cc(-c4cccc(OC(F)F)c4)c(=O)[nH]n3)c(Cl)c2)c(=O)[nH]c1=O` [Compound 118], the Emax in assay [1] is 50 to 75%; in assay [2], 50 to 75%; in assay [3], < 50%; in assay [4], 50 to 75%. In addition, the EC50 is < 50 nM in assay [1], 0.05 to 0.25 µM in assay [2], 50 to 250 nM in assay [3] and < 50 nM in assay [4].
